Data published in patent US9815788B2, “Anti-angiogenic compounds” (University College Dublin National University of Ireland, …, priority 2012, dated 2017).
Where a name gives a salt, the structure may show the parent alone.

Tests used:
Format in all cases: cell-based, human
[1] = tested on: OE33R radio-resistant oesophageal adenocarcinoma cells; assay: Cell number after 24 hours drug treatment (crystal violet absorbance), OE33R; settings: 10 μM
Experimental: (§1) OE33P radio-sensitive and OE33R radio-resistant oesophageal adenocarcinoma cells were used to test the effects of the compounds 11B HCl, […], 11B CC16 HCl, 11B 471 and 11B 268 on cell number. Cells were maintained in RPMI media supplemented with 10% foetal calf serum, penicillin (100 U/ml) and streptomycin (100 gig/ml). A total of 11.000 or 13,000 cells, in 100 μl media, were seeded per well in 24 well plates and left to incubate for 24 hours, with an additional 150 μl media added after 5 hours. The media was replaced with solutions containing 10 μM of 11B HCl, 11B CC11 HCl, 11B CC16 HCl, 11B 471, 11B 268 or fresh media as a control. Each drug had 6 replicates. After 24 hours of treatment, the cells were fixed with 1% glutaraldehyde for 15 minutes and then stained with crystal violet for 30 minutes. The plates were blotted and dried overnight. The cells were resuspended with 1% TritonX-100 and shaken for 15 minutes. The absorbance was read on a spectrophotometer at 590 nm.
(§2) OE33P radiosensitive and OE33R radioresistant cells were used to test the effects of the compound 11B_Z_HCl on toxicity. Cells were maintained in RPMI media supplemented with 10% foetal calf serum, penicillin (100 U/ml) and streptomycin (100 μg/ml). A total of 11,000 cells, in 100 μl media, were seeded per well in 24 well plates and left to incubate for 24 hours, with an additional 150 μl media added after 5 hours. The media was replaced with solutions containing 10 μM of 11B_Z_HCl or fresh media as a control. Each treatment had 6 replicates. After 24 hours of treatment, the cells were fixed with 1% glutaraldehyde for 15 minutes and then stained with crystal violet for 30 minutes. The plates were blotted and dried overnight. The cells were resuspended with 1% TritonX-100 and shaken for 15 minutes. The absorbance was read on a spectrophotometer at 590 nm.

[2] = tested on: RAD51L3, MMS19, SMUG1, PARP1 and MLH1 in OE33P cells; assay: Gene expression of DNA repair proteins (qPCR), OE33P; settings: 10 μM, 24 hours, reductions of RAD51L3, MMS19, SMUG1 and PARP1
Experimental: (§3) O[…] radiosensitive and O[…] radioresistant oesophageal adenocarcinoma cells were used to test the effects of the above compounds on the gene expression of DNA repair proteins. Cells were maintained in RPMI media supplemented with 10% foetal calf serum, penicillin (100 U/ml) and streptomycin (100 μg/ml). Cells were seeded in 6 well plates and left to incubate for 24 hours. Cells were treated 10 μM of the above compounds or fresh media as a control. After 24 hours of treatment, RNA and cDNA was isolated and qPCR performed using primer probes to the following primer probes to RAD51L3, MMS19, SMUG1, PARP1 and MLH1. O[…] radiosensitive and O[…] radioresistant oesophageal adenocarcinoma cells were used to test the effects of compounds 11B HCl, 11B_CC11_HCl and 11B_Z_HCL on the gene expression of DNA repair proteins. Cells were maintained in RPMI media supplemented with 10% foetal calf serum, penicillin (100 U/ml) and streptomycin (100 μg/ml). Cells were seeded in 6 well plates and left to incubate for 24 hours. Cells were treated 10 μM of the above compounds or fresh media as a control. After 24 hours of treatment, RNA and cDNA was isolated and qPCR performed using primer probes to the following primer probes to RAD51L3, MMS19, SMUG1, PARP1 and MLH1.

[3] = tested on: RAD51L3, MMS19, SMUG1, PARP1 and MLH1 in OE33R cells; assay: Gene expression of DNA repair proteins (qPCR), OE33R; settings: 10 μM, 24 hours, reduction of RAD51L3, MMS19, PARP1 and MLH1
Experimental: as §3

[4] = tested on: OE33R radio-resistant oesophageal adenocarcinoma cells; assay: Quantification of oxidative phosphorylation (OCR, Seahorse), OE33R; settings: 10 μM, 24 hours
Experimental: (§4) OE33P radiosensitive and OE33R radio-resistant oesophageal adenocarcinoma cells were used to test the effects of the compounds 11B HCl, 11B CC11 HCl, 11B CC16 HCl, 11B 471 and 11B 268 on oxidative phosphorylation. Cells were maintained in RPMI media supplemented with 10% foetal calf serum, penicillin (100 U/ml) and streptomycin (100 μg/ml). A total of 11,000-13,000 cells, in 100 μl media, were seeded per well in 24 well plates and left to incubate for 24 hours, with an additional 150 μl media added after 5 hours. The media was replaced with solutions containing 10 μM of 11B HCl, 11B CC11 HCl, 11B CC16 HCl, 11B 471, 11B 268 or fresh media as a control. Each drug had 6 replicates. After 24 hours of treatment, media was replaced with modified DMEM supplemented with 0.5 mM glucose. Rates of oxidative phosphorylation were determined using Seahorse Biosciences metabolism technology. The media was disposed and the cells washed with PBS. The cells were fixed with 1% glutaraldehyde for 15 minutes and then stained with crystal violet for 30 minutes. The plates were blotted and dried overnight. The cells were resuspended with 1% TritonX-100 and shaken for 15 minutes. The absorbance was read on a spectrophotometer at 595 nm. Rates of oxidative phosphorylation were then normalised to cell number.
OE33P radiosensitive and OE33R radioresistant oesophageal adenocarcinoma cells were used to test the effects of the compound 11B_Z_HCl on oxidative phosphorylation. Cells were maintained in RPMI media supplemented with 10%0/foetal calf serum, penicillin […]) and streptomycin (100 μg/ml). A total of 11,000 cells, in 100 μl media, were seeded per well in 24 well plates and left to incubate for 24 hours, with an additional 150 μl media added after 5 hours. The media was replaced with solutions containing 10 μM of 11B_Z_HCl or fresh media as a control. Each treatment had 6 replicates. After 24 hours of treatment, media was replaced with modified DMEM supplemented with 0.5 mM glucose. Rates of oxidative phosphorylation were determined using Seahorse Biosciences metabolism technology. […]

[5] = tested on: OE33P radio-sensitive oesophageal adenocarcinoma cells; assay: Cell number after 24 hours drug treatment (crystal violet absorbance), OE33P; settings: 10 μM
Experimental: as §1, §2

[6] = tested on: OE33P radiosensitive oesophageal adenocarcinoma cells; assay: Quantification of oxidative phosphorylation (OCR, Seahorse), OE33P; settings: 10 μM, 24 hours
Experimental: as §4
OE33P radiosensitive and OE33R radioresistant oesophageal adenocarcinoma cells were used to test the effects of the compound 11B_Z_HCl on oxidative phosphorylation. Cells were maintained in RPMI media supplemented with 10%0/foetal calf serum, penicillin […]) and streptomycin (100 μg/ml). A total of 11,000 cells, in 100 μl media, were seeded per well in 24 well plates and left to incubate for 24 hours, with an additional 150 μl media added after 5 hours. The media was replaced with solutions containing 10 μM of 11B_Z_HCl or fresh media as a control. Each treatment had 6 replicates. After 24 hours of treatment, media was replaced with modified DMEM supplemented with 0.5 mM glucose. Rates of oxidative phosphorylation were determined using Seahorse Biosciences metabolism technology. Rates of oxidative phosphorylation were then normalised to cell number.

C/C(=C\c1ccccc1O)c1ccc2ccccc2n1.Cl [Compound 11B_CC11_HCl, (E)-2-(2-Quinolin-2-yl-propenyl)-phenol HCl salt]
cell number, measured by % absorbance [1]: did not significantly reduce cell number
expression of DNA repair genes [2]: Reduction
expression of DNA repair genes [3]: Reduction
oxygen consumption rate (OCR), a measure of oxidative phosphorylation [4]: significantly reduce
cell number, measured by % absorbance [5]: did not significantly reduce cell number
oxygen consumption rate (OCR), a measure of oxidative phosphorylation [6]: significantly reduce

Oc1ccccc1/C=C/c1ccc2ccccc2n1 [11B HCl]
cell number, measured by % absorbance [1]: did not significantly reduce cell number
expression of DNA repair genes [2]: Reduction
expression of DNA repair genes [3]: Reduction
oxygen consumption rate (OCR), a measure of oxidative phosphorylation [4]: significantly reduce
cell number, measured by % absorbance [5]: did not significantly reduce cell number
oxygen consumption rate (OCR), a measure of oxidative phosphorylation [6]: significantly reduce

Cl.Oc1ccccc1/C=C\c1ccc2ccccc2n1 [Compound 11B_Z_HCl, (Z)-2-(2-(Quinolin-2-yl)vinyl) phenol HCl salt]
cell number, measured by % absorbance ([1]; HCl salt): did not significantly reduce cell number
expression of DNA repair genes [2]: Reduction
expression of DNA repair genes [3]: Reduction
oxygen consumption rate (OCR), a measure of oxidative phosphorylation ([4]; HCl salt): Significantly Reduces
cell number, measured by % absorbance ([5]; HCl salt): did not significantly reduce cell number
oxygen consumption rate (OCR), a measure of oxidative phosphorylation ([6]; HCl salt): Significantly Reduces
